Source: patent US20250064807A1, “Promoting Hair Growth and Treatment of Hair Loss or Excessive Hair Shedding” (Samson Clinical Pty Ltd, priority 2017, published 2025)
“And” between values parts separate entries of the source, which are not always exact repeats. Equal entries are not always repeated. “Also recorded” adds a separate entry of the source. Where two headings read alike, the source gives them in different places.

Tests used:
[1] = for blood pressure after first dose / at time of peak concentration: single sublingual dose 0.45 mg; for adverse events / side effects: sublingual minoxidil 0.45 mg, b166: 30 patients, 2 to 12 months
Description: (§1) Hair counts were performed on dermatoscopic images taken at baseline and after 6 weeks. […] Steady state serum levels were measured after 8 weeks of daily dosing. 13 patients had hair counts performed.

[2] = cited from earlier work
[3] = for minoxidil in serum samples at steady state: 0.45 mg sublingually daily for a minimum of 6 weeks
Description: as §1

men with MPHL = settings: cited from earlier work
[4] = cited from earlier work; for mean serum concentration after topical application: scalp, twice daily; for peak serum concentration: one hour post-dose
[5] = Stability and beyond use of minoxidil and compounded dosage forms; assay type: physicochemical; settings: 110° C. for 30 minutes
[6] = tested on: patients with FPHL or MPHL; test: Randomized double-blind study of 0.45 mg sublingual minoxidil, week 8 interim hair assessments (Example 8); assay type: in vivo, human
Description: Participants receive study medication for 24 weeks followed by a follow-up visit 4 weeks later.
The aim is to enroll 40 participants.
Number of participants completed Week 8: 12 (2 females, 10 males). […] This timepoint represents a third of the planned treatment period for the study (24 weeks). Data from these 12 participants have been analysed at the 8 week mark. Analysis was performed blind as the study is still ongoing.
The minimum criteria for hair loss severity in female participants is a Grade 2 and maximum is Grade 5. ISA at Screening was Sinclair Scale 2 and 3 for each female participant. […] As the study is ongoing and medication blind still stands, the final outcome of change in hair density (at Week 24) cannot be concluded in this report. The minimum criteria for enrolment for male participants is Grade III-Vertex and maximum is VI.
Standardized global photography are taken at Study Weeks 0 (prior to dispensing of medication) and 8. Subsequent Week 16, 24 and 28 visits will also include global photography. A vertex and frontal scalp photograph is taken from a fixed height with a dedicated SLR camera. Current collated global photographs for all 12 patients were assessed by a blinded assessor. Comparison photographs between Baseline and Week 8 was provided to the designated blinded assessor.
Initial assessment of Dermatology Life Quality Index (DLQI) for males and Women's AGA Quality of Life Questionnaire (WAA-QOL): Responses by female participants was generally more negative corresponding to a higher score at both Baseline and Week 8 visits. The impact on Quality of Life was more pronounced in comparison to the male participants. […] A full score of 38 represented dissatisfaction with current hair growth. The mean score was 25 (SD: 2.19) at Week 0 and 24.7 (SD: 4.08) at Week 8. The median score from all 10 male participants was 24.5 and 25 respectively. Both female patients reported an average of Grade 3 with the Sinclair Scale (FIG. 1 above) at Baseline visit and subsequent Week 8 visit. This was consistent with the Investigator's grade of their hair loss severity.

[7] = Minoxidil serum levels after a single sublingual dose (Example 7); settings: for minoxidil in the serum after 2 hours: single sublingual dose 0.45 mg
[8] = tested on: women aged 20-68 with Sinclair stages 2-5 FPHL; test: Head to head study topical 5% minoxidil once daily vs oral minoxidil 1 mg daily, 24 weeks (data on file); assay type: in vivo, human; settings: for additional hairs on scalp from increase in hair density: scalp area 630 cm^2; for mean increase in terminal hair count: 24 weeks
men and women with AGA = test: Hair regrowth by macrophotography hair counts and global photography (Example 7); assay type: in vivo, human
Description: Hair counts were performed on dermatoscopic images taken at baseline and after 6 weeks. […] Steady state serum levels were measured after 8 weeks of daily dosing.

women = test: Hair count after 12 weeks of daily sublingual minoxidil troche (Example 6); assay type: in vivo, human; settings: individual patients 1-3, listed as sublingual minoxidil
[9] = Assessment of sublingual minoxidil on patient blood pressure (Example 5); settings: 2.5 mg sublingual troche, 5 individuals, monitored 6 hours post administration
[10] = 30 patients, sublingual minoxidil for between 2 and 12 months
[11] = Baseline vs Week 8, blinded assessor, blind not broken
[12] = 0.45 mg sublingually daily, minimum 6 weeks, 13 patients
[13] = 0.45 mg sublingually once daily
[14] = 0.25 mg sublingual troche daily, 12 weeks
[15] = 0.25 mg sublingual troche daily

biochemical abnormality [1, 10]: No biochemical abnormality was detected
minoxidil in serum samples at steady state [3]: No minoxidil was detected
minoxidil in serum samples at steady state ([3]; listed as sublingual minoxidil): not detected
accumulation with continuous dosing ([3]; continuous sublingual dosing): does not accumulate
thermal stability [5]: stable
minoxidil in the serum after 2 hours ([7]; listed as sublingual minoxidil): no detectable minoxidil
circulating minoxidil after 1 hour ([7]; sublingual dosing): undetectable
respiratory rate and tympanic temperature (12 participants): within normal range
SMILES: Nc1cc(N2CCCCC2)nc(N)[n+]1[O-] [minoxidil, 2,4-Diamino-6-piperidinopyrimidine 3-oxide]
hypertrichosis, tachycardia, fluid retention or postural hypotension [1, 10]: No patient developed hypertrichosis, tachycardia, fluid retention or postural hypotension
mean blood pressure [1, 10]: no reduction
blood pressure after first dose / at time of peak concentration [1]: unaffected
blood pressure after first dose / at time of peak concentration ([1]; listed as sublingual minoxidil): no change
adverse events / side effects [1]: No adverse events were noted
adverse events / side effects ([1]; listed as sublingual minoxidil): No side effects were reported
effect on blood pressure in hypertensive patients ([2]; oral, 5 to 100 mg daily): profound reduction in blood pressure
effect on blood pressure of normotensive individuals ([2]; oral, 5 to 100 mg daily): minimal effect
effect on blood pressure or pulse rate ([2]; topical): minimal effect
serum concentration threshold for any hemodynamic response ([2]; twelve hour steady state intravenous infusions (Ferry et al., 1996)): 20 ng/mL
men with MPHL with arrest of hair loss or mild to moderate hair regrowth (men with MPHL; applied topically): approximately 60%
average increase in hair count (men with MPHL; topical, 5% concentration, 12 months): 12.3%
mean serum concentration after topical application ([4]; 2% minoxidil (20 mg/ml)): 0.7 ng/mL
mean serum concentration after topical application ([4]; 5% minoxidil (50 mg/ml)): 1.8 ng/mL
absorption through the gastrointestinal tract ([4]; in vivo, po): > 90%
peak serum concentration ([4]; oral dose 2.5 mg): 18.5 ng/mL
peak serum concentration ([4]; oral dose 5 mg): 41 ng/mL
highest serum level recorded ([4]; topical application): 18.2 ng/mL
Investigator scalp assessment, Sinclair Scale, change at Week 8 ([6]; 0.45 mg sublingual once daily, individual female participants, blind not broken, listed as sublingual minoxidil): slight increase from grade 3 to 2; also recorded: no change
Men's Hair Growth Questionnaire median score at Week 8 ([6]; 10 male participants): 25
Men's Hair Growth Questionnaire scores, Week 0 vs Week 8 ([6]; 10 male participants): No significant difference
Men's Hair Growth Questionnaire mean score at Week 8 ([6]; 10 male participants, full score 38 = dissatisfaction): 24.7 (SD: 4.08)
participants (of 12) whose assessment suggests a slight to moderate increase in hair density [6, 11]: Eight
participants (of 12) whose global photography suggests a decrease in hair density [6, 11]: 2 participants
patient reported Sinclair Scale grade at Week 8 (average) ([6]; both female patients, same at Baseline): 3 Grade
minoxidil in the serum after 2 hours [7]: no detectable minoxidil; also recorded: undetectable
additional hairs on scalp from increase in hair density ([8]; 7 hair/cm^2 increase (topical group)): 4600 hairs
additional hairs on scalp from increase in hair density ([8]; 27 hair/cm^2 increase (oral group)): 17,000 hairs
mean increase in terminal hair count ([8]; oral minoxidil 1 mg daily): 27 /cm^2
mean increase in terminal hair count ([8]; topical 5% minoxidil once daily): 7 /cm^2
change in hair counts on frontal and vertex areas, all patients (men and women with AGA; 0.45 mg sublingually daily, 6 weeks, 13 patients): increased terminal hairs; also recorded: increase in hair counts
hair density, clinic assessment (men and women with AGA; 0.45 mg sublingually daily, minimum 6 weeks, 2 patients): moderate increase (+2)
mean increase in frontal scalp terminal hairs (men and women with AGA; [12]): 69.13 hairs/cm^2
mean increase in vertex scalp terminal hairs (men and women with AGA; [12]): 97.38 hairs/cm^2
range of increase in frontal scalp terminal hairs (men and women with AGA; [12]): 4-133 hairs/cm^2
range of increase in vertex scalp terminal hairs (men and women with AGA; [12]): 31-253 hairs/cm^2
hair regrowth compared with topical or oral minoxidil (men and women with AGA; [13]): greater and detected earlier
increase from baseline in hair count on the vertex scalp (men and women with AGA; [13]): 52.5%
increase from baseline in hair count over the frontal scalp (men and women with AGA; [13]): 36.5%
hair regrowth compared with topical or oral minoxidil (men and women with AGA; 0.45 mg sublingually once daily, listed as sublingual minoxidil): grows more hair
midline hair density, blinded assessment of global photography (men and women with AGA; 0.45 mg sublingually, 8 weeks, 5 of the patients): slight increase
scalp global photographs at 6 weeks (men and women with AGA; 0.45 mg sublingually, all patients): either mild or moderate improvement
terminal hair count at 12 weeks (figure legend) (women; [14]): 123 and 186 and 71
vellus hair count at 12 weeks (women; [14]): 6 and 13
total hair count at 12 weeks (women; 0.25 mg sublingual troche daily, 12 weeks, scalp section): 129 and 199 and 84
increase in total hair count from baseline to 12 weeks (women; [15]): 21 hairs and 32 hairs and 23 hairs
percent increase in total hair count from baseline to 12 weeks (women; [15]): 19.4% and 19.2% and 37.7%
Hair Count at week 12 (women; Table 1, terminal hairs, 0.25 mg sublingual troche daily): 71 and 123 and 186
Percentage increase (women; Table 1, week 12 vs baseline terminal hair count): 42% and 23% and 23.2%
adverse symptoms, postural hypotension or change in blood pressure [9]: No adverse symptoms, postural hypotension or change in blood pressure was noted
adverse events at Week 8 visit (0.45 mg sublingual once daily, 12 participants, blind not broken): No significant adverse events
blood pressure readings, day of randomization vs Week 8 (12 participants): not significant
safety blood profile (Week 8, 12 participants): within the normal range
